Experiment: Transport in Caco-2 cells
Assay type: in vitro ADME, human
Conditions: human
Procedure: The culture medium was changed every other day for the first 7 days and then daily for the next 14 days. […] Prior to the transport experiments, the cell monolayers were washed three times with HBSS at 37°C. […] At the same time, the corresponding opposite side was filled with medium as the receiving chamber. After incubation for 30, 60, 90, and 120 min, 250-μl aliquots of the medium was taken from the receiving chamber at each time point, and prepared for analysis by HPLC–MS/MS. […] where (ΔQ/Δt) is the linear slope of the drug concentration in the receptor chamber over time, A represents the surface area of the membrane (1.12 cm^2), and C0 is the initial concentration of drug in the donor chamber. The efflux ratio (ERpermeability) for BL to AP and AP to BL transport was defined by the following equation: […] where Papp (BL–AP) and Papp (AP–BL) are the apparent permeability of drugs from the basolateral (BL) to apical (AP) and AP to BL sides of the monolayer, respectively.

[1] = Caco-2, BBR 10 μM in presence of TB-2 (5 μM), n = 3

COc1ccc2cc3[n+](cc2c1OC)CCc1cc2c(cc1-3)OCO2 [BBR, berberine] showed an efflux ratio at 10 μM (Caco-2, Caco-2, BBR 10 μM in presence of TB-2 (5 μM), read-out: ERpermeability (efflux ratio)) of 31.1, a Papp A→B at 10 μM [1] of 0.048 ± 0.014 ×10⁻⁶ cm/s and a Papp B→A at 10 μM [1] of 1.5 ± 0.499 ×10⁻⁶ cm/s.

From article PMC6353801, “Enhanced Anti-diabetic Effect of Berberine Combined With Timosaponin B2 in Goto-Kakizaki Rats, Associated With Increased Variety and Exposure of Effective Substances Through Intestinal Absorption” (Frontiers in Pharmacology, 2019)
